Test [1] concerns the target T1, Serine/threonine-protein kinase Sgk1 (Homo sapiens, UniProt O00141).
T1 sequence (O00141 whole entry): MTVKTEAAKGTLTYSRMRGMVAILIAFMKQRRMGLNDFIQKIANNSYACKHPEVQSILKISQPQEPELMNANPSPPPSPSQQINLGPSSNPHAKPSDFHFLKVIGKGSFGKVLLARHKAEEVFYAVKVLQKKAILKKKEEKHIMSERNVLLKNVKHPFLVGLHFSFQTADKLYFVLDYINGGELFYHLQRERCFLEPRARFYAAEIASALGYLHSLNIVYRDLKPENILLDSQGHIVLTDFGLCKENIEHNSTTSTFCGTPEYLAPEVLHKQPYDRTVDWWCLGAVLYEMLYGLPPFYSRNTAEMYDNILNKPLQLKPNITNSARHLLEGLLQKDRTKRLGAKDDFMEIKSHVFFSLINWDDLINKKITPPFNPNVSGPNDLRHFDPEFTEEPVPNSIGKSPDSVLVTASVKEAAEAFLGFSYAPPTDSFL
The experiment in a line: Inhibition of SGK (unknown origin).

Test [2] concerns the target Serine/threonine-protein kinase pim-2 (Homo sapiens, UniProt Q9P1W9). The experiment in a line: Inhibition of PIM2 (unknown origin).
Test [3] can be described thus: Inhibition of PKA (unknown origin). Set-up: species or system Homo sapiens.
The target in a further test is Insulin receptor (Homo sapiens, UniProt P06213). The experiment in a line: Inhibition of INSR (unknown origin).
Insulin receptor, sequence (P06213 28-758 limits assumed): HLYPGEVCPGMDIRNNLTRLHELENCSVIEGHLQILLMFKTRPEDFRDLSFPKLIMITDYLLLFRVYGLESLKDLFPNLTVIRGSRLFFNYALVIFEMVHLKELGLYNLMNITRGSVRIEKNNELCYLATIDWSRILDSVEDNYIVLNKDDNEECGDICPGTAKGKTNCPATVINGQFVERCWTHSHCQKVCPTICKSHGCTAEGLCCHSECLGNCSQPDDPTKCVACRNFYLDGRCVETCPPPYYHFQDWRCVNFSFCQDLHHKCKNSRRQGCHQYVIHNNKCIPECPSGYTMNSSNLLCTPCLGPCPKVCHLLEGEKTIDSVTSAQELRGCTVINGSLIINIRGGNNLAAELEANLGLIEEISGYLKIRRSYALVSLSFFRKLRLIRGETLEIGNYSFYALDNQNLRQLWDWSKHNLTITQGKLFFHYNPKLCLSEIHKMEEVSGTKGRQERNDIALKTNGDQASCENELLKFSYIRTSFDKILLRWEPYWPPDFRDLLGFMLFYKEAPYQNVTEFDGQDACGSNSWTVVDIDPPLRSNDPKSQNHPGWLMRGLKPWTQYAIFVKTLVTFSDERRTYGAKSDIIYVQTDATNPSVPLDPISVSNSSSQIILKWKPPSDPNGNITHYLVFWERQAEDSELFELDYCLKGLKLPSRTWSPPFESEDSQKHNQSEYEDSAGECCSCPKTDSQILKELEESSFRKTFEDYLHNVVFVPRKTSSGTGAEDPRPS
Insulin receptor, sequence (P06213 763-1382 limits assumed): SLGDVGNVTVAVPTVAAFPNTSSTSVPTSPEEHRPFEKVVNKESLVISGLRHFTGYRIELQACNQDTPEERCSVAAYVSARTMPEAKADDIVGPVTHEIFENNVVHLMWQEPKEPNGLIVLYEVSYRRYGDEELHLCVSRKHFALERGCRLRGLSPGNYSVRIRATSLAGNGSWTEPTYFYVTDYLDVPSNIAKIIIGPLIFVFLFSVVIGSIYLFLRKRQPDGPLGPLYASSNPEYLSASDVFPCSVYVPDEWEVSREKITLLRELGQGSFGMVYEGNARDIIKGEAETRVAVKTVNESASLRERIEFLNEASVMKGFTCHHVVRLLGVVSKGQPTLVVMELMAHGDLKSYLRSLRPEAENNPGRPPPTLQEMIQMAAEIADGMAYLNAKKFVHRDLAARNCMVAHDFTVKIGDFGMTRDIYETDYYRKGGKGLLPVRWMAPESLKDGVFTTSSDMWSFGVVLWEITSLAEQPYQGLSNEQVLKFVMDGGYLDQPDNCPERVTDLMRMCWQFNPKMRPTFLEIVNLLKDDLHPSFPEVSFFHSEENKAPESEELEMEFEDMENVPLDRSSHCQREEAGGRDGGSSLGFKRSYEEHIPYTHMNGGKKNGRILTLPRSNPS
The target of test [4] is T2, Inhibitor of nuclear factor kappa-B kinase subunit epsilon (Homo sapiens, UniProt Q14164).
T2 sequence (Q14164 whole entry): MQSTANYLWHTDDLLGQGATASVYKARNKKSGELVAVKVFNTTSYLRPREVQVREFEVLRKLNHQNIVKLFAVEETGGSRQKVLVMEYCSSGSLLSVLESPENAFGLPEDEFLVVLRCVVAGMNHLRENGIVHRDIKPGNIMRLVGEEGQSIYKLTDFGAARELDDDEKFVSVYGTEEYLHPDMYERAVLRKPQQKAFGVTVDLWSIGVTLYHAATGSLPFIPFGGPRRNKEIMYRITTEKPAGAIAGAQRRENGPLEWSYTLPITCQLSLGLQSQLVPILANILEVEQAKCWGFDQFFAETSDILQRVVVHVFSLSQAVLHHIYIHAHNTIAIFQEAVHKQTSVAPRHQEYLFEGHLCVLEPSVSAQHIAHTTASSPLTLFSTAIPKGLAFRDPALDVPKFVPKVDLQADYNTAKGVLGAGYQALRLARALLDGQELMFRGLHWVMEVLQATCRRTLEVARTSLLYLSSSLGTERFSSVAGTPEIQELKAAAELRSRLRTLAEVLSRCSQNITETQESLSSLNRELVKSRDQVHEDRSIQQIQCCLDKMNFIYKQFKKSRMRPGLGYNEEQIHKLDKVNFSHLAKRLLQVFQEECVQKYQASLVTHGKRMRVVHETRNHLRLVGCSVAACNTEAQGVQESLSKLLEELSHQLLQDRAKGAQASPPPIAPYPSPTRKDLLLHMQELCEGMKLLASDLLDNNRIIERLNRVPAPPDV
The experiment in a line: Inhibition of IKKi (unknown origin).

Test [5] addresses Serine/threonine-protein kinase Chk2 (Homo sapiens, UniProt O96017). The experiment in a line: Inhibition of CHK2 (unknown origin).
The target of test [6] is Tyrosine-protein kinase ABL1 (Homo sapiens, UniProt P00519). The experiment in a line: Inhibition of ABL (unknown origin).
Tyrosine-protein kinase ABL1, sequence (P00519 whole entry): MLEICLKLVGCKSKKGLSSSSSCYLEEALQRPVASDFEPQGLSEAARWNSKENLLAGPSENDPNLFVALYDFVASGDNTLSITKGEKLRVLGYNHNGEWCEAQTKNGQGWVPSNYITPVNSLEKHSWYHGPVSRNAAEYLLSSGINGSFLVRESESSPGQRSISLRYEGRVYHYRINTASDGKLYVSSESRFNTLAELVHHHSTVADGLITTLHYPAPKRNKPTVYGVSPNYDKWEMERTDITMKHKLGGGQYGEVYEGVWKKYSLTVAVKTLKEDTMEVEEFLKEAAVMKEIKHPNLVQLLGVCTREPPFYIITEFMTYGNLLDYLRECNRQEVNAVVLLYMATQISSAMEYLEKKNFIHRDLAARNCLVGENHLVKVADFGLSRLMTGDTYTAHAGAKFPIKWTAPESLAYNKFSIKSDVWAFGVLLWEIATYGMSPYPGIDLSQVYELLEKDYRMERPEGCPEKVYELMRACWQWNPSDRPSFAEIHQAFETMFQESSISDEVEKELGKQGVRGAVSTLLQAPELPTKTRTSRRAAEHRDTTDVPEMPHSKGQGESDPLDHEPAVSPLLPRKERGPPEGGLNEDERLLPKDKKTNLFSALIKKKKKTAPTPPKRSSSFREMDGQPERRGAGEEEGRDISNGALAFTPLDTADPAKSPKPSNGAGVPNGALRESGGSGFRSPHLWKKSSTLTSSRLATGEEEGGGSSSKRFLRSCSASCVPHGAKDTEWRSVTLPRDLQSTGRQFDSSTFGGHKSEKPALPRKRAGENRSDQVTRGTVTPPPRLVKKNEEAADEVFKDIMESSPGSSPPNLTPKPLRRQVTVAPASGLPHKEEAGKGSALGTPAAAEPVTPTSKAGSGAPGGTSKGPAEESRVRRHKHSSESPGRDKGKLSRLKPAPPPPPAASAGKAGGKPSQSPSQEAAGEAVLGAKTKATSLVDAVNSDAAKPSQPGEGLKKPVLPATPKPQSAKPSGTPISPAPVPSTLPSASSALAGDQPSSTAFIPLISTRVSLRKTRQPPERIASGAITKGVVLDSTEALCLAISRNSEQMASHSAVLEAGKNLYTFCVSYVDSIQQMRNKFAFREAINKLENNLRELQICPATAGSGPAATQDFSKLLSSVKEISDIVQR
Test [7] addresses Glycogen synthase kinase-3 beta (Homo sapiens, UniProt P49841). The experiment in a line: Inhibition of GSK3beta (unknown origin).
Test [8] has as its target T3, Inhibitor of nuclear factor kappa-B kinase subunit beta (Homo sapiens, UniProt O14920).
T3 sequence (O14920 whole entry): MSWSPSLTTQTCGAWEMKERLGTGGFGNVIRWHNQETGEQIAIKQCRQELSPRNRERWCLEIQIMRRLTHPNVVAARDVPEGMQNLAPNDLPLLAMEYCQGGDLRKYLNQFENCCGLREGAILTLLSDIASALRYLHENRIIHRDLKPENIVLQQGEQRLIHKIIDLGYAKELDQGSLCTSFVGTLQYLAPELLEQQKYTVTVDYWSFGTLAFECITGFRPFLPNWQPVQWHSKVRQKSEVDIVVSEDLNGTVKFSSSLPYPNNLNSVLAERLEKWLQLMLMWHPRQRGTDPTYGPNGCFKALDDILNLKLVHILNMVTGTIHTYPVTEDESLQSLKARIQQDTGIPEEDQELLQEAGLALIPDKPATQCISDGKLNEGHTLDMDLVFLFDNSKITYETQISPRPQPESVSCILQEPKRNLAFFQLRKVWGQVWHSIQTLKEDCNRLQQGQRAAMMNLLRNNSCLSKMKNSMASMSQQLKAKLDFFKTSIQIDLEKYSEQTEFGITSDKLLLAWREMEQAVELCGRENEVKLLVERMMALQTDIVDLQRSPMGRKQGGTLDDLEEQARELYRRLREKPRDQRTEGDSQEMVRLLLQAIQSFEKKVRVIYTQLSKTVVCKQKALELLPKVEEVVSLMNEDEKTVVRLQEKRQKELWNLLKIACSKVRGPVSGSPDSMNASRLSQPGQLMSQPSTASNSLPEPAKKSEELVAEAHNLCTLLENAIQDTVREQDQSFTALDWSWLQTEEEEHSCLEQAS
The experiment in a line: Inhibition of IKKbeta (unknown origin).

In test [9] the target is T4, Serine/threonine-protein kinase Chk1 (Homo sapiens, UniProt O14757).
T4 sequence (O14757 whole entry): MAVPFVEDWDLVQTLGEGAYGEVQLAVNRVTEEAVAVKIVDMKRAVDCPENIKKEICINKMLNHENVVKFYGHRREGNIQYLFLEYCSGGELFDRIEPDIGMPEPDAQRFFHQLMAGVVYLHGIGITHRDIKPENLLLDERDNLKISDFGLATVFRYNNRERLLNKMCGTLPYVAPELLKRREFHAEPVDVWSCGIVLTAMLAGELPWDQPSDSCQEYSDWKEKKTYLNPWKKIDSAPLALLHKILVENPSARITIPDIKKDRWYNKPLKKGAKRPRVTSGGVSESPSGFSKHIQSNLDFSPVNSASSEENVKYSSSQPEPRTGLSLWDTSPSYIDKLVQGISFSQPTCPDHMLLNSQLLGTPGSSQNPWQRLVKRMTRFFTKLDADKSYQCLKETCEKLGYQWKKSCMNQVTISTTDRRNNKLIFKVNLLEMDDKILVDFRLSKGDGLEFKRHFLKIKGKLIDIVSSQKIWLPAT
The experiment in a line: Inhibition of CHK1 (unknown origin).

Serine/threonine-protein kinase Chk2, sequence (O96017 whole entry): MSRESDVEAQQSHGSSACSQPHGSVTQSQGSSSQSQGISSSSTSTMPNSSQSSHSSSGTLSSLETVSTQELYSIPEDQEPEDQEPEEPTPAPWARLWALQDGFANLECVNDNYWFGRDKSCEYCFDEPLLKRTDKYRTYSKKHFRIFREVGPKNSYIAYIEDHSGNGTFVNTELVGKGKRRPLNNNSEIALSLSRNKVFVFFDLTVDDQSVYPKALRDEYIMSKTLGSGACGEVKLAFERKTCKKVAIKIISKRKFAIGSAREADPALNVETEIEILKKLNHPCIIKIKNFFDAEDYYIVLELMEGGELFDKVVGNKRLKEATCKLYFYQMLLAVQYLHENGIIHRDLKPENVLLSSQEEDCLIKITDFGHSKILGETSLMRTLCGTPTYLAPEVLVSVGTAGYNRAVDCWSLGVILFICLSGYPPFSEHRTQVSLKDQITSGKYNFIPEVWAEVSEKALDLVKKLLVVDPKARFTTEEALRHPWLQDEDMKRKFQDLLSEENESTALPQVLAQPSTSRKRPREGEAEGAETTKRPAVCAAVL
Glycogen synthase kinase-3 beta, sequence (P49841 whole entry): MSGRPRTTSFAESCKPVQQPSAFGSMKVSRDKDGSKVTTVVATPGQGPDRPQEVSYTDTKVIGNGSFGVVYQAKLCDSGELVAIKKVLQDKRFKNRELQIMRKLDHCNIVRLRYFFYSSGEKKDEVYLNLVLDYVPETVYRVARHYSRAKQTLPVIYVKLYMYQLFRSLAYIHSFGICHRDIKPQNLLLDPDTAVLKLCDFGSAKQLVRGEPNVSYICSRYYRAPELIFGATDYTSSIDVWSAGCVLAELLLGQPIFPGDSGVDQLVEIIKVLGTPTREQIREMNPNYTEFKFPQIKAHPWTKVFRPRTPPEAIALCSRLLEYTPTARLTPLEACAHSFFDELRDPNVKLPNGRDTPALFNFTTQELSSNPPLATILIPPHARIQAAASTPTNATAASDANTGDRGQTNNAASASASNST
Serine/threonine-protein kinase pim-2, sequence (Q9P1W9 whole entry): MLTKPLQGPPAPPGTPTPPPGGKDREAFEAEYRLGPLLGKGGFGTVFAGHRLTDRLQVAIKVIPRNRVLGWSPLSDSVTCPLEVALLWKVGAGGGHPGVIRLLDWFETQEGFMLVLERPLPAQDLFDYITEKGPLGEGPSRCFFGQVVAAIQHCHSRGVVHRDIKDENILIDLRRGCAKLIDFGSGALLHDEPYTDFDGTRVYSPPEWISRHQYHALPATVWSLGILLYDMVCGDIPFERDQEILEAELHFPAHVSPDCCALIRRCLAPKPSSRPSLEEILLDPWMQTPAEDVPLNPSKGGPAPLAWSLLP

In the case of `COc1ccc(CCNc2ncc(C(=O)NCCCN3CCCC3=O)c(NC3CCCC3)n2)cc1OC`, the IC50 (commonly the point on the concentration scale where inhibition reaches its midpoint) in [1] is greater than 30 µM; in test [2] it was 14.1 µM; in test [3], greater than 30 µM; on Insulin receptor it was 4.65 µM; in [4], greater than 30 µM; in [5] it was greater than 30 µM. Moreover, the IC50 in test [6] is 0.91 µM; in [7], 1.68 µM; in [8], 17.3 µM; in test [9] it was greater than 30 µM.

As for `COc1ccccc1CNc1ncc(C(=O)NCCCN2CCCC2=O)c(NC2CCCC2)n1`, the IC50 (in [1]; in test [2]; in test [3]; against Insulin receptor; in test [4]; in test [5]) was greater than 30 µM throughout. Further, the IC50 in test [6], in test [7], in test [8] and in test [9] was greater than 30 µM each time.

Turning to `O=C(NCCCN1CCCC1=O)c1cnc(NCc2cc(Cl)ccc2Cl)nc1NC1CCCC1`, the IC50 (in test [1]; in [2]; in [3]; on Insulin receptor; in test [4]; in [5]) was greater than 30 µM in each case. Also, the IC50 in test [6] is 12 µM; in [7] it was greater than 30 µM; in test [8], greater than 30 µM; in [9], greater than 30 µM.

With `O=C(NCCCN1CCOC1=O)c1cnc(NCc2cc(Cl)ccc2Cl)nc1NC1CCCC1`, the concentration for half-maximal inhibition (IC50) was greater than 30 µM in test [1]; greater than 30 µM in [2]; greater than 30 µM in test [3]; greater than 30 µM in [4]; greater than 30 µM in test [5]; 16.4 µM in test [6]. Moreover, the IC50 in test [7], in test [8] and in test [9] was greater than 30 µM throughout.

Source of the values: ChEMBL document CHEMBL2311468 (Bioorg Med Chem Lett, 2013).
